According to US12070444B2, “Modulation of molecular markers using S-equol” (Board of Regents, The University of Texas System, priority 2020, dated 2024):
“Also recorded” adds a separate entry of the source.

Experiments:
ERβ pY36 [1] = molecular target: T1, ERβ pY36 (Homo sapiens, UniProt Q92731); test: pY36-specific phosphorylation signal of ERβ in MDA-MB-231 cells; format: cell-based; conditions: MDA-MB-231 cells (FIG. 16A)
T1 construct: host or cells: MDA-MB-231 (human TNBC cell line)
Excerpt: FIG. 16. […] See, Yuan et al. (2016) listed below, which is incorporated by reference herein for all purposes.

[2] = tested on: AT3 mammary tumor cell line; test: AT3 mammary tumor challenge in mice treated with S-equol and/or anti-PD-1 antibody; format: in vivo, mouse
Method: (§1) The following three murine mammary tumor lines were tested to determine the effects of a PD-1 inhibitor, S-equol and a combination of the two therapies on tumor growth: (1) E0771 (B6 background), (2) AT-3 (B6 background), and (3) 4T1 (BalbC background). This experimental design includes four arms (using AT-3 as an example): (1) controls, (2) αPD-1, (3) S-equol, and (4) αPD-1+S-equol (FIG. 3) by injecting into mice 2×10^5 cells subcutaneously into the 4th mammary gland fat pad. Antibodies were administered α-PD-1: 200 μg/mice by i.p. injection every 3 days and S-equol was administered at 50 mg/kg/day by oral gavage. Treatment began 7 day after tumor challenge. Tumor growth trajectories were compared within treated mice using a repeated measures linear mixed model. The primary outcome was the logarithm of the tumor size, and the test statistic is the treatment×time interaction. Tumors were measured about 10 times. The number of recipient mice use used in the studies (n=8 per group) was based on the above study.
(§2) For tumor studies, 8 to 10-week-old mice were used. M-Wnt (5 Å˜10^5 cells), E0771 (5 Å˜10^5 cells), AT-3 (2 Å˜10^5 cells), and EMT-6 (5 Å˜10^5 cells) tumor cells were subcutaneously inoculated into the fourth mammary pad. B16F10 (0.5 Å˜10^6 cells) and MC38 (5 Å˜10^6 cells) tumor cells were subcutaneously inoculated into the back flank. Tumor volume was measured with calipers (0.5 Å˜length Å˜width2) on the indicated days. Anti-IgG2a (BioXcell, Cat: #BE0146) and anti-PD-1 (BioXcell, Cat: #BE0089) antibodies were administered through intraperitoneal (i.p.) injection at a dose of […] every 3 days starting on day 7 after tumor challenge for the duration as indicated. S-equol (from Ausio Pharmaceuticals) was administered daily by oral gavage at 50 mg/kg beginning on the day of tumor challenge and continuing throughout the entire tumor growth experiments.

ERβ pY36 [3] = molecular target: T1, ERβ pY36; conditions: breast cancer cells; published work (Yuan, 2016); cited from earlier work
cytochrome oxidase (COX) = conditions: brains from ovariectomized mice; cited from earlier work
TNBC = test: Neoadjuvant window trial of S-equol in TNBC patients (Example 15); format: in vivo, human; set-up: Cyclin D1 staining, median decrease: unit not given here
Method: FIG. 35. Clinical trial with TNBC patients. A neoadjuvant window trial was performed on 39 enrolled patients with TNBC confirmed on diagnostic core needle biopsy. Cohort A (20 patients) received a daily dose of 50 mg BID and Cohort B (19 patients) received a higher dose of 150 mg BID for 10-21 days.
S-equol is a novel oral Estrogen Receptor (ER) Beta agonist with preclinical data showing suppression of TNBC cellular proliferation. A neoadjuvant window trial was performed on 39 enrolled patients with TNBC confirmed on diagnostic core needle biopsy. Cohort A (20 patients) received a daily dose of 50 mg BID and Cohort B (19 patients) received a higher dose of 150 mg BID for 10-21 days. (FIG. 35.) Paired biopsies were evaluable for 36 patients. Primary outcome was a change from pre- to post-treatment Ki-67 and secondary outcomes were included as correlative biomarkers. […] The average decrease in Ki-67 was 8% (P=0.00206, 95% CI−13.46 to −3.26).

[4] = tested on: B16 melanoma tumor cell line; test: B16 melanoma tumor challenge in mice treated with S-equol and/or anti-PD-1 antibody; format: in vivo, mouse
Method: FIG. 4. A schema for combination therapy. Mice were administered one of: (1) vehicle+rat IgG2a; (2) S-equol+rat IgG2a; (3) vehicle+anti-PD-1 antibody; or (4) S-equol+anti-PD-1 antibody. Mice receiving anti-PD-1 antibody were given 250 μg every 3 days, intraperitoneally, and mice receiving S-equol were given 50 mg/kg per day by oral gavage. Treatment started 7 days after tumor challenge with B16 melanoma.
Melanoma cell line B16 was tested to determine the effects of a PD-1 inhibitor, S-equol and a combination of the two therapies on tumor growth. This experimental design includes four arms: (1) controls, (2) αPD-1, (3) S-equol, and (4) αPD-1+S-equol (FIG. 4) by injecting into mice 5×10^5 cells subcutaneously. Antibodies were administered α-PD-1: 250 μg/mice by i.p. injection every 3 days and S-equol was administered at 50 mg/kg/day by oral gavage. Treatment began 7 day after tumor challenge. Tumor growth trajectories were compared within treated mice using a repeated measures linear mixed model. The primary outcome was the logarithm of the tumor size, and the test statistic is the treatment×time interaction. Tumors were measured about 10 times. The number of recipient mice use used in the studies (n=6 per group) was based on the above study.
as §2

[5] = tested on: E0771 mammary tumor cell line; test: E0771 mammary tumor challenge in mice treated with S-equol and/or anti-PD-1 antibody; format: in vivo, mouse; conditions: E0771 mammary tumor model, Example 14, four arms (FIG. 33A-B)
Method: as §1
For tumor studies, 8 to 10-week-old mice were used. M-Wnt (5 Å˜10^5 cells), E0771 (5 Å˜10^5 cells), AT-3 (2 Å˜10^5 cells), and EMT-6 (5 Å˜10^5 cells) tumor cells were subcutaneously inoculated into the fourth mammary pad. […] Tumor volume was measured with calipers (0.5 Å˜length Å˜width2) on the indicated days. […]

T1 sequence (Q92731 whole entry): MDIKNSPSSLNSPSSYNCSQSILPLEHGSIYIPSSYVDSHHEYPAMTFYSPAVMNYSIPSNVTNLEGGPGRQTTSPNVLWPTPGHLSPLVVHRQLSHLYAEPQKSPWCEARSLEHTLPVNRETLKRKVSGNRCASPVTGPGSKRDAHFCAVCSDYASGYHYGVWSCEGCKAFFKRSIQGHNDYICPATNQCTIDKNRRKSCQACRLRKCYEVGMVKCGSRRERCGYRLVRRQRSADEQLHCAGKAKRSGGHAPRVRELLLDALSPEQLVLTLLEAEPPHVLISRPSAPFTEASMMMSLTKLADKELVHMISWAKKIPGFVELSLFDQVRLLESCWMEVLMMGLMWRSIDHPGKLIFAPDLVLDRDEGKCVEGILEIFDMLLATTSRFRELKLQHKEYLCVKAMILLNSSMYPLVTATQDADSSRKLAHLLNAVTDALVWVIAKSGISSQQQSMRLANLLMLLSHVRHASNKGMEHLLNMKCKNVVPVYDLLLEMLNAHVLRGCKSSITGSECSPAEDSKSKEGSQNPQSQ

pY36-specific phosphorylation signal (ERβ pY36 [1]): enhanced
Compound: Oc1ccc([C@H]2COc3cc(O)ccc3C2)cc1 [S-equol]
tumor weight ([2]; AT3 (FIG. 12B)): reduce tumor weight compared to control
tumor size ([2]; AT3, excised tumors (FIG. 12C)): reduce tumor size compared to control
tumor volume ([2]; AT3, anti-PD-1 200 μg every 3 days, S-equol 50 mg/kg per day, over 35 days post-challenge (FIG. 12A)): reduce tumor volume compared to control
human ERβ phosphorylation at Y36 (ERβ pY36 [3]): promotes
cytochrome oxidase (COX) activity and COX1 protein levels (cytochrome oxidase (COX)): increase
mean posttreatment Ki-67 (TNBC; 36 evaluable patients, S-equol 50 mg BID or 150 mg BID for 10-21 days, mean pre-treatment Ki-67 68%): 59%
tolerability (TNBC; oral, patients with TNBC): well tolerated
proliferation as measured by Ki-67 (in words) (TNBC; patients with TNBC): inhibition of proliferation
change in CD3 or CD8 staining (TNBC; pre- and post-treatment paired tumor samples): no significant change; also recorded: did not significantly change
average decrease in Ki-67 (TNBC; pre- to post-treatment, P=0.00206, 95% CI −13.46 to −3.26): 8%
patients with a Ki-67 decrease of at least 20% from baseline (TNBC; share of the patients): 28%
Cyclin D1 staining, median decrease (TNBC; with S-equol exposure, range −27.5-0.0): 12.5
ER-beta expression by IHC (in words) (TNBC; with exposure to S-equol): decreased
cyclin D1 staining by IHC (in words) (TNBC; with exposure to S-equol): decreased
ER Beta IHC expression, median decrease (TNBC; with exposure to S-equol, range −65.00 to −19.50): 45%
tumor weight ([4]; B16 melanoma (FIG. 8A)): reduce tumor weight compared to control
tumor response (growth and tumor weight) ([4]; B16 melanoma, Example 14, four arms (FIG. 26B-C)): responded
tumor volume ([4]; B16 melanoma, anti-PD-1 250 μg every 3 days i.p., S-equol 50 mg/kg per day oral gavage, over 12 days post-challenge (FIG. 6)): reduce tumor volume compared to control
tumor volume ([4]; B16 melanoma, anti-PD-1 250 μg every 3 days i.p., S-equol 50 mg/kg per day oral gavage, over 19 days post-challenge (FIG. 7)): reduce tumor volume compared to control
tumor volume ([4]; B16 melanoma, legend headed over 16 days, text says over 12 days post-challenge (FIG. 9A)): reduce tumor volume compared to control
tumor response (volume and weight) [5]: responded
